{"source": "patent US11446276B2", "about": "“Extreme low dose THC as a therapeutic and prophylactic agent for Alzheimer's disease” (University of South Florida, priority 2015, dated 2022)", "key": {"brain energy metabolism": {"tested_on": "brain energy metabolism", "conditions": "repeated high doses of THC (10 mg/kg body weight); rat brains; cited from earlier work"}, "Tau": {"tested_on": "Tau", "assay": "Western blot of Tau in N2a/AβPPswe cells", "type": "cell-based", "procedure": "(§1) FIG. 6C is a western blot assay showing Tau and phosphorylated Tau (pTau) levels in N2a/AβPPswe treated with 25 nM THC, 2.5 nM THC, or 0.25 nM THC. Anti-Tau, anti-pTau and β-actin antibodies were used to detect Tau and pTau, and β-actin that served as the protein loading control.\n(§2) FIG. 11C is a western blot assay showing Tau and phosphorylated Tau levels in N2a/AβPPswe treated as follows: untreated (CTRL, control), or 10^−5 M Melatonin with 2.5 nM THC, 10^−6 M Melatonin with 2.5 nM THC. Anti-Tau and anti-pTau antibodies were used to […] that served as the protein loading control.\n(§3) Amyloid processing and ancillary amyloid protein effects were next tested. After stripping the Western, and restaining for AβPP, using anti-Tau (Chuanhai Cao, Tampa, Fla.), anti-pTau (Chuanhai Cao, Tampa, Fla.), and anti-β-actin antibodies (Cat #A54441, Sigma Aldrich, Merck KGaA; Darmstadt, Germany)) were used to detect Tau levels against a protein loading control (β-actin). After data was collected the membrane was stripped using a western blot striping buffer (Cat #21059, Thermo Fisher Scientific, Waltham, Mass.) and stained for AβPP using 6E10 antibody (Cat #803002, BioLegend, Inc., San Diego, Calif.). Anti-mouse secondary horseradish peroxidase (Cat #A9044, Sigma Aldrich, Merck KGaA; Darmstadt, Germany) secondary antibodies were used."}, "[1]": {"tested_on": "phosphorylated Tau (pTau)", "assay": "Western blot of phosphorylated Tau in N2a/AβPPswe cells", "type": "cell-based", "procedure": "as §1, §2, §3"}, "Aβ peptide": {"biological_target": "Aβ peptide (Homo sapiens, UniProt P05067)", "sequence (P05067 672-711 limits assumed)": "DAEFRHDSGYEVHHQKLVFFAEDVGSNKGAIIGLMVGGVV", "assay": "Western blot of aggregated Aβ peptide / Aβ monomer", "type": "biochemical", "conditions": "100 nM, 10 nM, 1 nM THC; FIGS. 4A, 4B", "procedure": "FIG. 4A is a western blot showing aggregated Aβ peptide with and without THC treatment.\nFIG. 4B is a graph showing the relative quantity of Aβ monomer in the anti-aggregation study described in FIG. 4A. Cells were untreated for the aggregation control or treated with and 100 nM THC, 10 nM THC, and 1 nM THC.\nIn untreated samples, Aβ peptide increased in intensity for the first 20 minutes, followed by a plateauing of fluorescence at around 30 minutes, at which time the intensity remained constant for the duration of the study. […] Therefore, THC's direct interaction with the Aβ peptide will not dampen an immune response to clear the Aβ peptide. Further analysis with western blot was performed measuring the anti-aggregation properties of THC with Aβ peptide."}, "N2a/AβPPswe cells": {"tested_on": "N2a/AβPPswe cells", "assay": "MTT toxicity assay", "conditions": "36 hours; different concentrations; versus untreated cells; FIG. 9A", "protocol": "Cells were plated in 96-well tissue culture plate at 10,000 cells/well, 100 μL/well. 100 μL THC solution was added at 2× concentrations in each well. Control groups are: 1) cells without THC treatment, cells and fresh medium only and 2) blank, wells with medium without cells. All wells were replicated. Wells were incubated for 36 hours. Cell proliferation kit (Roche 11465007001) was then applied for toxicity assay according to the standard protocol. 10 μL of MTT reagent was first added to each well and incubated at 37° C. for 4 hours. Then 100 μL of solubilization solution was added to each well. These were incubated overnight and optical density (OD) values were read at 575 nm. The percentage of cell viability was calculated as: Cell viability %=(OD−OD blank)/(OD control−OD blank)."}, "mitochondrial function": {"tested_on": "mitochondrial function", "conditions": "THC 10 to 50 micromolar; cited from earlier work"}, "phosphorylated GSK-3β": {"tested_on": "phosphorylated GSK-3β", "assay": "Western blot of phosphorylated GSK-3β in N2a/AβPPswe cells", "type": "cell-based", "conditions": "25 nM, 2.5 nM, 0.25 nM THC; 36 hours; FIGS. 5D, 10B", "protocol": "Cells were plated in 6 well plate overnight with 25 nM THC, 2.5 nM THC, or 0.25 nM THC added into each designated wells in duplicate. Cells were lysed after 36 hours incubation. Proteins were loaded onto SDS-page gel and then blotted with each antibody after transfer onto PVDF membrane.\nUsing 12% Tris-Glycine gel system (Bio-rad), proteins were separated by electrophoresis and semi-dry transferred to a PVDF membrane. GSK-3β and β-actin antibodies were used as primary antibody. After adding secondary antibody, the membranes were exposed using ECL substrate (Pierce). After membrane was developed, film with bands were scanned, followed by analysis of gel-quantification software (QuantityOne, from Biorad)."}, "[2]": {"biological_target": "acetylcholinesterase (AChE) (Homo sapiens, UniProt P22303)", "sequence (P22303 32-614)": "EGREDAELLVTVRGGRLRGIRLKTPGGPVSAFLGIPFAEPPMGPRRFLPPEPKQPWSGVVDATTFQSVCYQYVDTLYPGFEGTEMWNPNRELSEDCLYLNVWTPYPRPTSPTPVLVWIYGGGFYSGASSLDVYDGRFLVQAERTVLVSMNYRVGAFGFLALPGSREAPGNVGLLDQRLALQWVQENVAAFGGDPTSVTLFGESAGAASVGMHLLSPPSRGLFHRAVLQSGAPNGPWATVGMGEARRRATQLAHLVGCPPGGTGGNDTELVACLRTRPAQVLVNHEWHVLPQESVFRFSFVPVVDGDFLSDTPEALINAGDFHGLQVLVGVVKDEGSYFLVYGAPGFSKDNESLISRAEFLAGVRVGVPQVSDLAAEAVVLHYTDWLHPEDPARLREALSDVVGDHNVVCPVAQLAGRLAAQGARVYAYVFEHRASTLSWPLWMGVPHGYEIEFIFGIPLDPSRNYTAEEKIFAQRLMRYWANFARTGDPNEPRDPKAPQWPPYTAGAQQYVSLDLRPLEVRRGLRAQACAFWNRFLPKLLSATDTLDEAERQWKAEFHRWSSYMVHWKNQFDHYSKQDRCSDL", "conditions": "THC 50 μM; cited from earlier work"}, "[3]": {"tested_on": "Aβ40 in N2a/AβPPswe cells", "assay": "Aβ40 ELISA of N2a/AβPPswe cells treated with THC or caffeine", "type": "cell-based, human", "conditions": "for Aβ40 levels versus control: THC 0.25-2500 nM or caffeine 0.625-10 μM; for Percentage of decreased Aβ40: THC 2.5 μg/mL compared with the control; for Aβ40 (pg/mL) in THC-treated cells: THC 2.5 μg/mL, N2a/AβPPswe cells"}, "[4]": {"biological_target": "AChE induced Aβ aggregation (Homo sapiens, UniProt P22303)", "sequence (P22303 32-614)": "as above", "conditions": "THC 50 μM; cited from earlier work"}, "[5]": {"conditions": "in vivo; cited from earlier work"}, "GSK-3β": {"tested_on": "GSK-3β", "conditions": "10 mg/kg of body weight of THC; mice; cited from earlier work"}}, "note": "Entries after “also recorded” stand apart in the source; their conditions may differ.", "data": [{"compound": "CCCCCc1cc(O)c2c(c1)OC(C)(C)[C@@H]1CCC(C)=C[C@@H]21", "note": "[THC, Δ9-tetrahydrocannabinol]", "values": [{"measurement": "Brain energy metabolism", "setting": "brain energy metabolism", "result": "dampen the brain energy metabolism"}, {"measurement": "Tau level among THC concentrations", "setting": "Tau; 2.5 nM THC, FIGS. 6C, 7", "result": "lowest level of Tau"}, {"measurement": "Tau protein levels (standardized to β-actin), THC alone", "setting": "Tau; 25 nM, 2.5 nM, 0.25 nM THC, FIG. 7", "result": "lowers the production of Tau; also recorded: reduces Tau protein levels"}, {"measurement": "Ratio of pTau:Tau among THC concentrations", "setting": "[1]; 2.5 nM THC, FIG. 8", "result": "peak of pTau:Tau ratio"}, {"measurement": "Phosphorylated Tau levels, THC alone", "setting": "[1]; 25 nM, 2.5 nM, 0.25 nM THC, FIGS. 6C, 6D", "result": "reduction by THC in a dose-dependent manner; also recorded: lowers the phosphorylation of tau in a dose dependent manner; also recorded: decreases phosphorylated Tau"}, {"measurement": "Ratio of phosphorylated Tau to Tau, THC alone", "setting": "[1]; 25 nM, 2.5 nM, 0.25 nM THC, FIGS. 8, 13", "result": "increase the ratio of pTau:Tau; also recorded: increase in phosphorylated Tau; also recorded: increases phosphorylated Tau"}, {"measurement": "Relative quantity of Aβ monomer", "setting": "Aβ peptide", "result": "increases monomeric Aβ; also recorded: higher relative % of Aβ monomer"}, {"measurement": "Toxicity (reduction of MTT, OD)", "setting": "N2a/AβPPswe cells", "result": "no significant difference from the control; also recorded: no toxicity; also recorded: lack of toxicity"}, {"measurement": "Cell death", "setting": "mitochondrial function", "result": "induces cell death"}, {"measurement": "Mitochondrial function", "setting": "mitochondrial function", "result": "inhibitor of mitochondrial function"}, {"measurement": "Phosphorylated GSK-3β, THC alone", "setting": "phosphorylated GSK-3β", "result": "decreases the phosphorylation of GSK-3β; also recorded: decrease of phosphorylated GSK-3β; also recorded: decreases phosphorylated GSK-3β"}, {"measurement": "Inhibition of AChE", "setting": "[2]", "result": "competitively inhibits"}, {"measurement": "Aβ levels at the lowest dose", "setting": "[3]; 6 hours, THC 0.25 nM", "result": "minor increase"}, {"measurement": "Aβ40 levels versus control", "setting": "[3]; 6 hours, FIG. 1A", "result": "dose-dependent decrease; also recorded: significant reduction"}, {"measurement": "Percentage of decreased Aβ40", "setting": "[3]; 6 hr", "result": 9.23, "unit": "%"}, {"measurement": "Aβ40 (pg/mL) in THC-treated cells", "setting": "[3]; 6 hr", "result": 965.827, "unit": "pg/mL"}, {"measurement": "Aβ40 levels versus control", "setting": "[3]; 24 hours, FIG. 1B", "result": "dose-dependent decrease; also recorded: exponential drop"}, {"measurement": "Percentage of decreased Aβ40", "setting": "[3]; 24 hr", "result": 31.19, "unit": "%"}, {"measurement": "Aβ40 (pg/mL) in THC-treated cells", "setting": "[3]; 24 hr", "result": 3648.975, "unit": "pg/mL"}, {"measurement": "Aβ40 levels versus control", "setting": "[3]; 48 hours, FIG. 1C", "result": "dose-dependent decrease; also recorded: significantly differed more"}, {"measurement": "Percentage of decreased Aβ40", "setting": "[3]; 48 hr", "result": 51.24, "unit": "%"}, {"measurement": "Aβ40 (pg/mL) in THC-treated cells", "setting": "[3]; 48 hr", "result": 2894.175, "unit": "pg/mL"}, {"measurement": "AChE induced Aβ aggregation", "setting": "[4]", "result": "prevents AChE induced Aβ aggregation"}, {"measurement": "Bioavailability", "setting": "[5]", "result": 30, "unit": "%"}, {"measurement": "Phosphorylation of GSK-3β", "setting": "GSK-3β", "result": "increased phosphorylation of GSK-3β"}]}]}
